Molecular target: T1, hNav1.7 (Homo sapiens, UniProt Q15858)
T1 construct: expressed in transfected cells
Test: Tritiated sulfonamide binding to membranes from cells expressing hNav1.7 and the β1 subunit (Nav 1.7 ligand binding assay, competitive)
Conditions: competition with 100 pM [3H]compound, room temperature, 18 h
Procedure: Tritiated Sulfonamide Binding to Membranes Isolated from Cells that Heterologously Express hNav1.7 and the β1 Subunit
Preparation of membranes containing recombinantly expressed sodium channels: Frozen recombinant cell pellets were thawed on ice and diluted to 4 times the cell pellet weight with ice cold 50 mM Tris HCl, pH 7.4 buffer. The cell suspensions were homogenized on ice using a motorized glass dounce homogeniser. Homogenates were further diluted 8.4 times with ice cold 50 mM Tris HCl, pH 7.4 buffer and then centrifuged at 200×g at 4° C. for 15 min. The supernatants were collected and centrifuged at 10000×g at 4° C. for 50 min. The pellets were then re-suspended in 100 mM NaCl, 20 mM Tris HCl, pH 7.4 buffer containing 1% v/v protease inhibitors (Calbiochem) and re-homogenized on ice. The homogenized membranes were then processed through a syringe equipped with a 26 gauge needle. Protein concentrations were determined by Bradford Assay and the membranes were stored at −80° C.
Radioligand Binding Studies:
Saturation experiments. A competitive NaV1.7 inhibitor having a methyl group was tritiated. Three tritiums were incorporated in place of methyl hydrogens to generate [^3H]compound. Binding of this radioligand was preformed in 5 mL borosilicate glass test tubes at room temperature. Binding was initiated by adding membranes to increasing concentrations of [^3H]compound in 100 mM NaCl, 20 mM Tris HCl, pH 7.4 buffer containing 0.01% w/v bovine serum albumin (BSA) for 18 h. Non-specific binding was determined in the presence of 1 μM unlabelled compound. After 18 h, the reactants were filtered through GF/C glass fiber filters presoaked in 0.5% w/v polyethylene imine Filters were washed with 15 mL ice cold 100 mM NaCl, 20 mM Tris HCl, pH7.4 buffer containing 0.25% BSA to separate bound from free ligand. [^3H]compound bound to filters was quantified by liquid scintillation counting.
Competitive Binding Experiments:
Binding reactions were preformed in 96-well polypropylene plates at room temperature for 18 h. In 360 μL, membranes were incubated with 100 pM [^3H]compound and increasing concentrations of Test Compound. Non-specific binding was defined in the presence of 1 μM unlabelled compound. Reactions were transferred and filtered through 96-well glass fiber/C filter plates presoaked with 0.5% polyethylene imine. The filtered reactions were washed 5 times with 200 μL ice cold buffer containing 0.25% BSA. Bound radioactivity was determined by liquid scintillation counting. Data Analysis: For saturation experiments, non-specific binding was subtracted from total binding to provide specific binding and these values were recalculated in terms of pmol ligand bound per mg protein. Saturation curves were constructed and dissociation constants were calculated using the single site ligand binding model: Beq=(Bmax*X)/(X+Kd), where Beq is the amount of ligand bound at equilibrium, Bmax is the maximum receptor density, Kd is the dissociation constant for the ligand, and X is the free ligand concentration. For competition studies percent inhibition was determined and IC50 values were calculated using a 4 parameter logistic model (% inhibition=(A+((B−A)/(1+((x/C)⨣D)))) using XLfit, where A and B are the maximal and minimum inhibition respectively, C is the IC50 concentration and D is the (Hill) slope.

T1 sequence (Q15858 whole entry): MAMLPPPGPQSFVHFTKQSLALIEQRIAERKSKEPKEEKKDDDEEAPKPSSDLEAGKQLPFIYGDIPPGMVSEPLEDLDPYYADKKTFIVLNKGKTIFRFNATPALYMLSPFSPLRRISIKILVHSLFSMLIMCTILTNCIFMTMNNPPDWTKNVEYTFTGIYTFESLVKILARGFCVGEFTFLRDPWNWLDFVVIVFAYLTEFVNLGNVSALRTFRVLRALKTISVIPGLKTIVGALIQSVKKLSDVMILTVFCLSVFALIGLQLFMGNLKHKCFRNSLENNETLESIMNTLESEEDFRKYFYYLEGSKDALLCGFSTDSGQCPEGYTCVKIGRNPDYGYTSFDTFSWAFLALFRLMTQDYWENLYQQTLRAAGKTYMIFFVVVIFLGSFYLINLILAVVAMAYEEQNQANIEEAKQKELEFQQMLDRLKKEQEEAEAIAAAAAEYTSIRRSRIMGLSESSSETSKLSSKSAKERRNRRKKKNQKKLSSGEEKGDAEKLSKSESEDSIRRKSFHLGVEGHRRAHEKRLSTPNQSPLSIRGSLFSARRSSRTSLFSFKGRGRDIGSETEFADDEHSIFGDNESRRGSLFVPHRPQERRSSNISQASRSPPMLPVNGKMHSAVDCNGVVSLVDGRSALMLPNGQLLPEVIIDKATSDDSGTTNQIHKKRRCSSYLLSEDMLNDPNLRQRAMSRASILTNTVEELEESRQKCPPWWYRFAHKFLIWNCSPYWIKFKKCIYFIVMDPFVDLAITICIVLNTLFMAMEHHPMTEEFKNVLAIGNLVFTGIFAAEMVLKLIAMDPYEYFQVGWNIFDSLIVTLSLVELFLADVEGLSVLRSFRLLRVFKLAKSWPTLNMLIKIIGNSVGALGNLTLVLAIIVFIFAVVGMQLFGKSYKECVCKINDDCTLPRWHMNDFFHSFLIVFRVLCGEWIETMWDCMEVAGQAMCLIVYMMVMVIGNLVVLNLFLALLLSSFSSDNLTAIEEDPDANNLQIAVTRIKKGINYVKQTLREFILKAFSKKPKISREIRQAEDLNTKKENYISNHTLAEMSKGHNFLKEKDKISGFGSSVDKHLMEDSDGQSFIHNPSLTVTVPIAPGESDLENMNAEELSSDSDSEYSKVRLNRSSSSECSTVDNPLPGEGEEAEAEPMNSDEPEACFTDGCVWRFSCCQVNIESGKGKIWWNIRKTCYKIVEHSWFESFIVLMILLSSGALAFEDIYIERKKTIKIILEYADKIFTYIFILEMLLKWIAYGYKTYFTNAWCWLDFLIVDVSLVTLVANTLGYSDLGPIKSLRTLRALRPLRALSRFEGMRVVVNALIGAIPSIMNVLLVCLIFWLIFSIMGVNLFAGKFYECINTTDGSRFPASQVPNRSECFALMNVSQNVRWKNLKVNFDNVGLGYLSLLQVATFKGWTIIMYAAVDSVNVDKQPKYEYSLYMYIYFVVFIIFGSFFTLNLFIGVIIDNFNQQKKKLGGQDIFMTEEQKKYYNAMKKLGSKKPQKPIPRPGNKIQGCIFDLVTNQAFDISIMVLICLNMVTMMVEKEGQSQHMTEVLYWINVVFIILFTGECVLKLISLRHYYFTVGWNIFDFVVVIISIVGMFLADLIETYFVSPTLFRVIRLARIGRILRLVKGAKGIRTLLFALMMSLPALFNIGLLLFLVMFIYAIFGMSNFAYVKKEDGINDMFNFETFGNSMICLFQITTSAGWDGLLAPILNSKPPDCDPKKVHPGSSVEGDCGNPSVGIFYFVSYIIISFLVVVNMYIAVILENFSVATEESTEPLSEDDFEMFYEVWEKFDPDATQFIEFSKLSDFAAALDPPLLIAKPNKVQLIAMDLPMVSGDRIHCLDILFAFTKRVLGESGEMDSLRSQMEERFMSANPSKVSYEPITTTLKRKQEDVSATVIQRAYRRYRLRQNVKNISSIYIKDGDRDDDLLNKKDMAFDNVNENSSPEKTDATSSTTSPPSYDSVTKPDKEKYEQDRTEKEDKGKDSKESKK
T1 sequence (Q07699 19-218 partner): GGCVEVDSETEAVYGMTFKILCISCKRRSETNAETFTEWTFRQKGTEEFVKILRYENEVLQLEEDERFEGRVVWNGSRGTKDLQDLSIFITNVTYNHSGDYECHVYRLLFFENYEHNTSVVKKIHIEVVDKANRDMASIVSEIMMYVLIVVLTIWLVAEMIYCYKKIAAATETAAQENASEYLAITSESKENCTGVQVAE

Compound: CS(=O)(=O)NC(=O)c1cc(C2CC2)c(O[C@H]2CN(Cc3ccc(F)cc3Cl)CC[C@@H]2F)cc1F (relative stereo) [Example 45, trans 4-((1-(2-chloro-4-fluorobenzyl)-4-fluoropiperidin-3-yl)oxy)-5-cyclopropyl-2-fluoro-N-(methylsulfonyl)benzamide]
- IC50: 83 nM

Compound: C[C@H](c1cc(Cl)cc(Cl)c1C#N)N1CCC(COc2cc(F)c(C(=O)NS(C)(=O)=O)cc2C2CC2)CC1 (single isomer, unassigned) [Example 1]
- IC50: 8.8 nM

Compound: C[C@@H](c1cc(Cl)cc(Cl)c1C#N)N1CCC(COc2cc(F)c(C(=O)NS(C)(=O)=O)cc2C2CC2)CC1 (single isomer, unassigned) [Example 2]
- IC50: 5.5 nM

Compound: COC1(COc2cc(F)c(C(=O)NS(C)(=O)=O)cc2C2CC2)CCN([C@@H](C)c2cc(Cl)cc(Cl)c2)CC1 (single isomer, unassigned) [Example 5]
- IC50: 9.2 nM

Compound: C[C@H](c1cc(C(F)(F)F)cc(Cl)c1F)N1CCC(C#N)(COc2cc(F)c(C(=O)NS(C)(=O)=O)cc2C2CC2)CC1 (single isomer, unassigned) [Example 8]
- IC50: 9.8 nM

Compound: CC(C)(C#N)[C@H](c1cc(Cl)cc(Cl)c1)N1CCC(COc2cc(F)c(C(=O)NS(C)(=O)=O)cc2C2CC2)CC1 (single isomer, unassigned) [Example 11]
- IC50: 4.2 nM

Compound: CC(C)(C#N)[C@@H](c1cc(Cl)cc(Cl)c1)N1CCC(COc2cc(F)c(C(=O)NS(C)(=O)=O)cc2C2CC2)CC1 (single isomer, unassigned) [Example 12]
- IC50: 3.9 nM

Compound: COc1c(Cl)cc(Cl)cc1[C@@H](C)N1CCC(COc2cc(F)c(C(=O)NS(C)(=O)=O)cc2C2CC2)CC1 (single isomer, unassigned) [Example 15]
- IC50: 5.1 nM

Compound: COc1c(Cl)cc(Cl)cc1[C@H](C)N1CCC(COc2cc(F)c(C(=O)NS(C)(=O)=O)cc2C2CC2)CC1 (single isomer, unassigned) [Example 16]
- IC50: 5.7 nM

Compound: C[C@@H](c1ccc(F)cc1Cl)N1CCC(F)(COc2cc(F)c(C(=O)NS(C)(=O)=O)cc2C2CC2)CC1 (single isomer, unassigned) [Example 18]
- IC50: 10 nM

Compound: C[C@H](c1ccc(F)cc1Cl)N1CCC(F)(COc2cc(F)c(C(=O)NS(C)(=O)=O)cc2C2CC2)CC1 (single isomer, unassigned) [Example 19]
- IC50: 6 nM

Compound: C[C@@H](c1ccc(Cl)c(Cl)c1)N1CCC(F)(COc2cc(F)c(C(=O)NS(C)(=O)=O)cc2C2CC2)CC1 (single isomer, unassigned) [Example 22]
- IC50: 5.6 nM

Compound: C[C@H](c1ccc(Cl)c(Cl)c1)N1CCC(F)(COc2cc(F)c(C(=O)NS(C)(=O)=O)cc2C2CC2)CC1 (single isomer, unassigned) [Example 23]
- IC50: 6.4 nM

Compound: C[C@@H](c1cc(F)cc(Cl)c1)N1CCC(F)(COc2cc(F)c(C(=O)NS(C)(=O)=O)cc2C2CC2)CC1 (single isomer, unassigned) [Example 24]
- IC50: 4.1 nM

Compound: C[C@H](c1cc(F)cc(Cl)c1)N1CCC(F)(COc2cc(F)c(C(=O)NS(C)(=O)=O)cc2C2CC2)CC1 (single isomer, unassigned) [Example 25]
- IC50: 2 nM

Compound: C[C@@H](c1ccc(F)c(Cl)c1)N1CCC(F)(COc2cc(F)c(C(=O)NS(C)(=O)=O)cc2C2CC2)CC1 (single isomer, unassigned) [Example 26]
- IC50: 4.7 nM

Compound: C[C@H](c1ccc(F)c(Cl)c1)N1CCC(F)(COc2cc(F)c(C(=O)NS(C)(=O)=O)cc2C2CC2)CC1 (single isomer, unassigned) [Example 27]
- IC50: 8.6 nM

Compound: CCS(=O)(=O)NC(=O)c1cc(C2CC2)c(OCC2CCN([C@@H](C)c3cc(Cl)cc(Cl)c3F)CC2)cc1F (single isomer, unassigned) [Example 32]
- IC50: 5.1 nM

Compound: CCS(=O)(=O)NC(=O)c1cc(C2CC2)c(OCC2CCN([C@H](C)c3cc(Cl)cc(Cl)c3F)CC2)cc1F (single isomer, unassigned) [Example 33]
- IC50: 2.4 nM

Compound: CS(=O)(=O)NC(=O)c1cc(C2CC2)c(OCC2CCN([C@H](c3cc(Cl)cc(Cl)c3)C3COC3)CC2)cc1F (single isomer, unassigned) [Example 34]
- IC50: 9.9 nM

Compound: CS(=O)(=O)NC(=O)c1cc(C2CC2)c(OCC2CCN([C@@H](c3cc(Cl)cc(Cl)c3)C3COC3)CC2)cc1F (single isomer, unassigned) [Example 35]
- IC50: 8.2 nM

Compound: C[C@@H](c1ccc(F)c(Cl)c1)N1CCC(COc2cc(F)c(C(=O)NS(C)(=O)=O)cc2C2CC2)CC1 (single isomer, unassigned) [Example 36]
- IC50: 6 nM

Compound: C[C@H](c1cc(Cl)c(F)c(Cl)c1)N1CCC(COc2cc(F)c(C(=O)NS(C)(=O)=O)cc2C2CC2)CC1 (single isomer, unassigned) [Example 37]
- IC50: 3 nM

Compound: C[C@@H](c1cc(Cl)c(F)c(Cl)c1)N1CCC(COc2cc(F)c(C(=O)NS(C)(=O)=O)cc2C2CC2)CC1 (single isomer, unassigned) [Example 38]
- IC50: 3.1 nM

Compound: C[C@H](c1ccc(Cl)c(F)c1)N1CCC(COc2cc(F)c(C(=O)NS(C)(=O)=O)cc2C2CC2)CC1 (single isomer, unassigned) [Example 39]
- IC50: 4.6 nM

Compound: C[C@@H](c1ccc(Cl)c(F)c1)N1CCC(COc2cc(F)c(C(=O)NS(C)(=O)=O)cc2C2CC2)CC1 (single isomer, unassigned) [Example 40]
- IC50: 6.6 nM

Compound: CS(=O)(=O)NC(=O)c1cc(C2CC2)c(OCC2CCN(Cc3cc(C(F)(F)F)cc(Cl)c3C#N)CC2)cc1F [Example 3, 4-((1-(3-chloro-2-cyano-5-(trifluoromethyl)benzyl)piperidin-4-yl)methoxy)-5-cyclopropyl-2-fluoro-N-(methylsulfonyl)benzamide]
- IC50: 4.5 nM

Compound: CS(=O)(=O)NC(=O)c1cc(C2CC2)c(OCC2CCN(Cc3cc(Cl)cc(C(F)(F)F)c3C#N)CC2)cc1F [Example 4, 4-((1-(5-Chloro-2-cyano-3-(trifluoromethyl)benzyl)piperidin-4-yl)methoxy)-5-cyclopropyl-2-fluoro-N-(methylsulfonyl)benzamide]
- IC50: 6.6 nM

Compound: CS(=O)(=O)NC(=O)c1cc(C2CC2)c(OCC2(O)CCN(Cc3cc(Cl)cc(Cl)c3)CC2)cc1F [Example 6, 5-Cyclopropyl-4-((1-(3,5-dichlorobenzyl)-4-hydroxypiperidin-4-yl)methoxy)-2-fluoro-N-(methylsulfonyl)benzamide]
- IC50: 10 nM

Compound: COC1(COc2cc(F)c(C(=O)NS(C)(=O)=O)cc2C2CC2)CCN(Cc2cc(C(F)(F)F)cc(Cl)c2F)CC1 [Example 7, 4-((1-(3-Chloro-2-fluoro-5-(trifluoromethyl)benzyl)-4-methoxypiperidin-4-yl)methoxy)-5-cyclopropyl-2-fluoro-N-(methylsulfonyl)benzamide]
- IC50: 7.9 nM

Compound: COC1(COc2cc(F)c(C(=O)NS(=O)(=O)C3CC3)cc2C2CC2)CCN(Cc2cc(Cl)cc(Cl)c2)CC1 [Example 9, 5-Cyclopropyl-N-(cyclopropylsulfonyl)-4-((1-(3,5-dichlorobenzyl)-4-methoxypiperidin-4-yl)methoxy)-2-fluorobenzamide]
- IC50: 5.7 nM

Compound: CCS(=O)(=O)NC(=O)c1cc(C2CC2)c(OCC2(OC)CCN(Cc3cc(Cl)cc(Cl)c3)CC2)cc1F [Example 10, 5-Cyclopropyl-4-((1-(3,5-dichlorobenzyl)-4-methoxypiperidin-4-yl)methoxy)-N-(ethylsulfonyl)-2-fluorobenzamide]
- IC50: 9 nM

Compound: CCS(=O)(=O)NC(=O)c1cc(C2CC2)c(OCC2CCN(Cc3cc(Cl)cc(Cl)c3OC)CC2)cc1F [Example 13, 5-Cyclopropyl-4-((1-(3,5-dichloro-2-methoxybenzyl)piperidin-4-yl)methoxy)-N-(ethylsulfonyl)-2-fluorobenzamide]
- IC50: 4.1 nM

Compound: COc1c(Cl)cc(Cl)cc1CN1CCC(COc2cc(F)c(C(=O)NS(C)(=O)=O)cc2C2CC2)CC1 [Example 14, 5-Cyclopropyl-4-((1-(3,5-dichloro-2-methoxybenzyl)piperidin-4-yl)methoxy)-2-fluoro-N-(methylsulfonyl)benzamide]
- IC50: 6.5 nM

Compound: N#Cc1c(Cl)cc(Cl)cc1CN1CCC(COc2cc(F)c(C(=O)NS(=O)(=O)C3CC3)cc2C2CC2)CC1 [Example 17, 5-Cyclopropyl-N-(cyclopropylsulfonyl)-4-((1-(3,5-dichloro-2-cyanobenzyl)piperidin-4-yl)methoxy)-2-fluorobenzamide]
- IC50: 5.9 nM

— patent US10179767B2 (GENENTECH, INC., priority 2015, dated 2019)
